From ChEMBL document CHEMBL2074231, “Influence of molecular structure on substrate binding to the human organic cation transporter, hOCT1” (Mol Pharmacol, 2003) come the findings set out here.

Usually IC50 stands for the concentration that gives 50% inhibition. A lower IC50 goes with higher potency.

The assay deals with T1, Solute carrier family 22 member 1 (Homo sapiens, UniProt O15245).
T1 sequence (O15245 whole entry): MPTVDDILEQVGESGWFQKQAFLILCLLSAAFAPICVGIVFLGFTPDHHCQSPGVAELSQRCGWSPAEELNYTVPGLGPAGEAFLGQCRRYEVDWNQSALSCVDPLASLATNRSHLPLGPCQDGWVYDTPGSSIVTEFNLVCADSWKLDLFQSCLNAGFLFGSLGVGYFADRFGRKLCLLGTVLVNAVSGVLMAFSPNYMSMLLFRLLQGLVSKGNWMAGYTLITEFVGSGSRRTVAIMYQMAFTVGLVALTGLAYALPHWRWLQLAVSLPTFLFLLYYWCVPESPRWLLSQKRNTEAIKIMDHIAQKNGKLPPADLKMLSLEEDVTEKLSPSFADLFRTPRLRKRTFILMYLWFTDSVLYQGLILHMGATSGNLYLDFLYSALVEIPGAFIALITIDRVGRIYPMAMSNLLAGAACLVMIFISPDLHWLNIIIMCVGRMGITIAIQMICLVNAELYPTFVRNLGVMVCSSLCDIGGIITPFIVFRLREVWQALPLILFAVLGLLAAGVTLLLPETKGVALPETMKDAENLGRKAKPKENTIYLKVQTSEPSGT
Put plainly: TP_TRANSPORTER: inhibition of TEA uptake in OCT1-expressing HeLa cells.

With `CN(C)CCCN1c2ccccc2Sc2ccc(Cl)cc21` [CHLORPROMAZINE], the IC50 was 4.3 µM.
